Data taken from ChEMBL document CHEMBL6127027, “Conserved gatekeeper methionine regulates the binding and access of kinase inhibitors to ATP sites of MAP2K1, 4, and 7: Clues for developing selective inhibitors” (Bioorg Med Chem Lett, 2024).
Activity calls are given as the source filed them. No cut-off for these calls is given here.

Legend:
[1] = biological target: T1, Dual specificity mitogen-activated protein kinase kinase 7 (Homo sapiens) (UniProt O14733); assay: Inhibition of MAP2K7 (unknown origin) at 100 uM relative to control
T1 sequence (whole entry): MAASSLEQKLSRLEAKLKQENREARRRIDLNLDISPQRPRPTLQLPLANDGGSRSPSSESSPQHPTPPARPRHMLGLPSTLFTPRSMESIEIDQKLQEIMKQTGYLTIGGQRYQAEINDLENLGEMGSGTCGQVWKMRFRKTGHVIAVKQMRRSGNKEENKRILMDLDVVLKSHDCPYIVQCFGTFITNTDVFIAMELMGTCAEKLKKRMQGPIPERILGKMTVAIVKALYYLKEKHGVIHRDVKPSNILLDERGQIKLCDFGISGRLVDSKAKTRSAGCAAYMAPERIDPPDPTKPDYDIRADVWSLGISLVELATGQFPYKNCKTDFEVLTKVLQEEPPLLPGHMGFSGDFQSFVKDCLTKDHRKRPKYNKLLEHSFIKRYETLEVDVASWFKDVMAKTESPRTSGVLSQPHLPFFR

[2] = biological target: Dual specificity mitogen-activated protein kinase kinase 1 (Homo sapiens, UniProt Q02750); assay: Inhibition of MAP2K1 (unknown origin)
Dual specificity mitogen-activated protein kinase kinase 1, sequence (Q02750 whole entry): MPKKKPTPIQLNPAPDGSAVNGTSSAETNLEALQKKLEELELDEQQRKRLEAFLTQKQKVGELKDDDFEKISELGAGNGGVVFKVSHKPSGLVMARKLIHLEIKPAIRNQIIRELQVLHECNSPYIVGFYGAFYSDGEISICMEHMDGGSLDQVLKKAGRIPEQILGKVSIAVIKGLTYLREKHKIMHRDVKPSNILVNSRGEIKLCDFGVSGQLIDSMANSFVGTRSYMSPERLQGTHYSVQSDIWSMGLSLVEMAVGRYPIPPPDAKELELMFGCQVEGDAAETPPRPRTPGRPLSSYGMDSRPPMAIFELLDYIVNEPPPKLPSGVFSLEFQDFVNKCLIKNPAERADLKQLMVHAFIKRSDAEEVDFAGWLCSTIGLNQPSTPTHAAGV

[3] = biological target: T2, Dual specificity mitogen-activated protein kinase kinase 4 (Homo sapiens) (UniProt P45985); assay: Inhibition of MAP2K4 (unknown origin) at 100 uM
T2 sequence (whole entry): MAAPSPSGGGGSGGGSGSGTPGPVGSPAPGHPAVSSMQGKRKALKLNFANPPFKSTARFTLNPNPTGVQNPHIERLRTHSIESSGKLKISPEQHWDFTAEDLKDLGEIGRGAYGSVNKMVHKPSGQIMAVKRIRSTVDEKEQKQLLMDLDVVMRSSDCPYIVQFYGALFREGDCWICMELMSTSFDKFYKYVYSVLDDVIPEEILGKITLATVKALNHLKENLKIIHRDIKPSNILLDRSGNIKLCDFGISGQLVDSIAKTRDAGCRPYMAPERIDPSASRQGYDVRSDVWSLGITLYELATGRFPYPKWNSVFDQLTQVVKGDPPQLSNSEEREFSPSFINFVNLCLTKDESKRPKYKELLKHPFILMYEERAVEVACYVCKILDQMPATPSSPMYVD

[4] = biological target: T3, Dual specificity mitogen-activated protein kinase kinase 4 (Homo sapiens, UniProt P45985); assay: Inhibition of MAP2K4 (unknown origin)
T3 sequence (P45985 whole entry): T2 sequence (whole entry)

Structure (SMILES): COc1cc(O)c2c(c1)/C=C/C[C@H](O)[C@H](O)C(=O)CCC[C@H](C)OC2=O
- inhibition [1]: 25%
- IC50 [2]: 5.2 µM
- inhibition [3]: inactive

Structure (SMILES): COc1cc(O)c2c(c1)/C=C/C[C@H](O)[C@H](O)C(=O)/C=C\C[C@H](C)OC2=O
- IC50 [4]: 4.7 µM
